Like-named read-outs stand apart in the source and are kept apart here.

For data set [1], the system named is TNF a. The experiment in a line: LPS stimulation of human PBMs, TNF a by ELISA. It is filed as cell-based. To be noted: LPS-stimulated human PBMs, TNF cell assay; read-out: Human PBM Assay IC50. Here is the method:
Human whole blood was collected in Vacutainer tubes containing EDTA as an anticoagulant. A blood sample (7 ml) was carefully layered over 5 ml PMN Cell Isolation Medium (Robbins Scientific) in a 15 ml round bottom centrifuge tube. The sample was centrifuged at 450-500×g for 30-35 minutes in a swing out rotor at room temperature. After centrifugation, the top band of cells were removed and washed 3 times with PBS w/o calcium or magnesium. The cells were centrifuged at 400×g for 10 minutes at room temperature. The cells were resuspended in Macrophage Serum Free Medium (Gibco BRL) at a concentration of 2 million cells/ml.
Compounds were dissolved in DMSO initially and diluted in TCM for a final-concentration of 0.1% DMSO. LPS (Calbiochem, 20 ng/ml, final concentration) was then added at a volume of 0.010 ml. Cultures were incubated overnight at 37° C. Supernatants were then removed and tested by ELISA for TNF a and IL1-b. Viability was analyzed using MTS. After 0.1 ml supernatant was collected, 0.0,20 ml MTS was added to remaining 0.1 ml cells.
(In general: In an ELISA, binding on a coated surface is turned into a signal by an enzyme label.)

In data set [2] the test system is TNF-α. The experiment in a line: LPS stimulation of TNF production by U937 cells. It is filed as cell-based, human. To be noted: Homo sapiens, U-937, LPS-stimulated U937 cells. The essentials: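 PMA-differentiated human U937 cells (20 ng/ml PMA, 24 h, then 24-48 h rest) at 2 million cells/ml, 0.1% DMSO final, stimulated with E. coli LPS (100 ng/ml final) for 4 h at 37° C. TNF-α in medium measured by ELISA; IC50 in μM.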

Data set [3] has as its target T1, human p38 kinase alpha (Homo sapiens, UniProt Q16539).
T1 construct: The coding region of the human p38a cDNA was obtained by PCR-amplification from RNA isolated from the human monocyte cell line THP.1; GST (N); made in house; host or cells: E. coli DH10B
The experiment in a line: p38 kinase in vitro assay, phosphorylation of biotinylated PHAS-I with gamma 32P-ATP. As to conditions: activated human p38 kinase alpha, PHAS-I substrate, 50 μM unlabeled ATP; read-out: p38 kinase IC50. It is filed as biochemical. The essentials:
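Radiometric filter-capture read-out: streptavidin plates trap biotin-PHAS-I labelled by activated (MKK6) human p38α from γ-32P-ATP. Buffer 25 mM HEPES pH 7.5, 10 mM magnesium acetate, 50 μM cold ATP; reactions 1 h or overnight at 30 °C; inhibitors 10-fold dilutions 100 to 0.001 μM, triplicates, 1% DMSO.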

The subject of data set [4] is TNF alpha. The experiment in a line: Mouse model of LPS-induced TNF alpha production. It is filed as in vivo. To be noted: mouse, oral, 1h before LPS, 30 mpk; read-out: mLPS 1h, 30 mpk percent inhibition.
Data set [5] addresses T2, human GST-p38 kinase alpha (Homo sapiens, UniProt Q16539).
T2 construct: The coding region of the human p38a cDNA was obtained by PCR-amplification from RNA isolated from the human monocyte cell line THP.1; made in house; host or cells: E. coli DH10B
The experiment in a line: p38 kinase in vitro assay, second format, phosphorylation of EGFRP with 33P-ATP. As to conditions: p38α in vitro, EGFRP assay procedure; read-out: p38^2 IC50. It is filed as biochemical. The essentials: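 Activated human GST-p38α (pre-activated with GST-MKK6, 1 h, 30 °C) phosphorylates EGFR 21-mer peptide (200 μM) with 50 μM ATP plus γ-33P-ATP, pH 7.5, 60 min at room temperature. Unreacted ATP removed by AG 1×8 resin; supernatant scintillation-counted.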

T1 sequence (Q16539 whole entry): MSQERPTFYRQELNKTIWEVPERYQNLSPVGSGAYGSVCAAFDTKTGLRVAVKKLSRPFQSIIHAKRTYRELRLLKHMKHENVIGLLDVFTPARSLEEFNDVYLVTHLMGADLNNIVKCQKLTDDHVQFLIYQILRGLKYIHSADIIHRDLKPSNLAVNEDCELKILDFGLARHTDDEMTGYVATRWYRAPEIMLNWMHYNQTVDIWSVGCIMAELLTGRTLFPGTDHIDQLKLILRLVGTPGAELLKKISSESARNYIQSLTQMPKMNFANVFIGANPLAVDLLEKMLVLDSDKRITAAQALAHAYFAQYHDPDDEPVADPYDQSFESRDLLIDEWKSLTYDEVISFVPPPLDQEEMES
T2 sequence (Q16539 whole entry): as above

For the compound `Cc1n[nH]c(-c2ccccc2)c1-c1ccncc1` [Example A-2, 4-(3-methyl-5-phenyl-1H-pyrazol-4-yl)pyridine], the melting point was 212 to 214 °C. The IC50 in data set [1] is 1600 nM. The IC50 in data set [2] (read-out: U937 Cell Assay IC50) stood at 578 nM. Also, the 50% inhibitory concentration (IC50) in data set [3] was 1500 nM.
On to `Cc1cccc(-c2[nH]nc(C(F)(F)F)c2-c2ccncc2)c1` [Example A-22, 4-[5-(3-methylphenyl)-3-(trifluoromethyl)-1H-pyrazol-4-yl]pyridine], for which the melting point was 237 to 239 °C. Moreover, the IC50 in data set [1] is 3200 nM.
As for `Cc1n[nH]c(-c2ccc(-c3ccccc3)cc2)c1-c1ccncc1` [Example A-12, 4-[5-[(1,1′-biphenyl)-4-yl]-3-methyl-1H-pyrazol-4-yl]pyridine], in data set [1], the IC50 amounted to 8500 nM.
As to `Cc1[nH]nc(-c2ccc(F)cc2)c1-c1ccncc1` [Example 4, 4-[3-(4-fluorophenyl)-5-methyl-1H-pyrazol-4-yl)pyridine], the IC50 in data set [1] was 100 nM; in data set [2] (read-out: U937 Cell Assay IC50), 222 nM.
Regarding `COc1ccc(-c2[nH]nc(C)c2-c2ccncc2)cc1F` [Example A-1, 4-[5-(3-fluoro-4-methoxyphenyl)-3-methyl-1H-pyrazol-4-yl]pyridine], the IC50 stood at 500 nM in data set [1] and 4600 nM in data set [3].
Consider `CCc1[nH]nc(-c2cccc(C)c2)c1-c1ccncc1` [Example A-45], for which the IC50 in data set [1] and in data set [3] was under 100 nM in each case.
Regarding `Cc1n[nH]c(-c2cccc(Oc3ccccc3)c2)c1-c1ccncc1` [Example A-13], the 50% inhibitory concentration (IC50) in data set [1] turned out to be 4800 nM.
The compound `CN(C)c1n[nH]c(-c2ccc(F)cc2)c1-c1ccncc1` [Example A-19, 5-(4-fluorophenyl)-N, N-dimethyl-4-(4-pyridinyl)-1H-pyrazol-3-amine] had a melting point of 245 to 247 °C. Moreover, the IC50 in data set [1] worked out at 300 nM. The IC50 in data set [2] (read-out: U937 Cell Assay IC50) worked out at 484 nM.
On to `Cc1ccc(C)c(-c2[nH]nc(C)c2-c2ccncc2)c1` [Example A-9], for which the IC50 in data set [1] was 400 nM.
Regarding `Cc1n[nH]c(-c2ccc3c(c2)OCO3)c1-c1ccncc1` [Example A-10, 4-[5-(1,3-benzodioxol-5-yl)-3-methyl-1H-pyrazol-4-yl]pyridine], the IC50 is 700 nM in data set [1] and 1690 nM in data set [2] (read-out: U937 Cell Assay IC50).
For the compound `Cc1cccc(-c2[nH]nc(C)c2-c2ccncc2)c1` [Example A-8], the IC50 in data set [1] and in data set [3] was under 100 nM throughout.
With `Cc1n[nH]c(C2CCCCC2)c1-c1ccncc1` [Example A-24], the IC50 in data set [1] came to 8200 nM.
The compound `N#Cc1cc(-c2c[nH]nc2-c2ccc(F)cc2)ccn1` [Example A-215, 4-[3-(4-fluorophenyl)-1H-pyrazol-4-yl]-2-pyridinecarbonitrile] returned a melting point of 209.22 °C. Also, the inhibition in vivo at 30 mg/kg in data set [4] was 80%. In addition, in data set [2] (read-out: U937 IC50), the IC50 is 298 nM. Also, the IC50 in data set [5] is 2340 nM.
On to `Cc1n[nH]c(-c2ccc(Cl)cc2)c1-c1ccncc1` [Example A-7, 4-(3-(4-chlorophenyl)-5-methyl-1H-pyrazol-4-yl)pyridine], for which the figures for the IC50 in data set [1] and in data set [2] (read-out: U937 Cell Assay IC50) were 200 nM and 201 nM, respectively.
Turning to `Cc1n[nH]c(-c2cccc(OCc3ccccc3)c2)c1-c1ccncc1` [Example A-14, 4-[3-methyl-5-[3-(phenylmethoxy)phenyl]-1H-pyrazol-4-yl]pyridine], the IC50 in data set [1] worked out at 1200 nM.
With `Cc1n[nH]c(-c2cccc(O)c2)c1-c1ccncc1` [Example A-17, 3-[3-methyl-4-(4-pyridinyl)-1H-pyrazol-4-yl]phenol], the IC50 in data set [1] was determined as 1100 nM.

One may read the melting point as the temperature, or range, at which the solid turns liquid. What is called IC50 is the midpoint of a concentration-inhibition curve.

The values above are taken from patent US6525059B1, “Substituted pyrazoles as p38 kinase inhibitors” (G. D. Searle & Company, priority 1998, dated 2003).
